# Like-named read-outs stand apart in the source and are kept apart here.
# Tests used:
# [1] = system: tobacco budworm GABA-gated chloride channel; assay type: cell-based; details: for Fluorescence: then GABA, HEK a-3 cells, average of three tests
# Description: The following solutions were prepared prior to or on the same day the experiment was to be carried out: • Solution A: To about one liter of deionized water was added 8.0 grams of sodium chloride, 0.395 gram of potassium chloride, 0.294 gram of calcium chloride, 0.203 gram of magnesium chloride, 4.5 grams of glucose, and 2.38 grams of [4-(2-hydroxyethyl)-1-piperazineethanesulfonic acid (“HEPES”) (all available from Aldrich Chemical Company, Milwaukee, Wis.). The resulting solution was stirred until dissolution was complete and then the pH adjusted to 7.3 to 7.4 with an aqueous 1 M sodium hydroxide solution. • Solution B: To one vile of the dye (“FLIPR® Membrane Potential Assay Reagent, Component A”) contained in the FLIPR® Membrane Potential Assay Kit was added about 10 ml of Solution A. The resulting mixture was mixed by repeated pippetting until the content of the vile was completely dissolved and used immediately or stored at […] for future use.
# The following solution was prepared on the same day the experiment was to be carried out: • Solution C: To solution B was added about 90 mL of Solution A. The resulting mixture was mixed until dissolution was complete. • Solution D: GABA (available from Sigma Chemical Co., St. Louis, Mo.), […], was taken up in 30 ml of Solution A. The resulting solution was mixed until dissolution was completion, yielding a […] GABA solution. • Solution E: To 1.2 ml of Solution D was added 38.8 ml of Solution A. The resulting mixture was mixed by repeated pippetting until dissolution was complete, yielding a 300 μM GABA solution.
# On the same day the experiment is to be carried, Solutions A-E are prepared again in the manner described above.
# (§1) One day before of the experiment, HEK a-3 cells were seeded into two wells of a poly-D-lysine coated blackwall 96 well microplate with clear bottom at a cell density of about 100,000 cells per well. Upon completion of addition, the cells were incubated at 37° C. in a cell culture incubator for twenty-four hours, for use below.
# In carrying out the first step, on the day of the experiment, the 96 well microplate containing the HEK a-3 cells was removed from the incubator and 100 μl of Solution C was added to the two wells of the 96 well microplate. Upon completion of addition, the microplate was allowed to stand at ambient temperature of 3.5 to 4 hours. After this time, the microplate was placed onto the FLIPR^384® Fluorometric Imaging Plate Reader system in which the laser intensity was set at a suitable level to obtain a basal value of approximately 10,000 fluorescence units, fluorescent readings were obtained every one second for the first minute and then every six seconds thereafter, and fluorescence measurements were captured by a cooled CCD camera. After ten seconds from the start of the fluorescence measurements, 25 μl of Solution E was added at a rate of 25 μl/second by the system to one of the two wells of the 96 well microplate. Upon completion of addition, the level of fluorescence of the HEK a-3 cells was determined using the FLIPR^384® Fluorometric Imaging Plate Reader system.
# as §1, with “each well” for “two wells”, “bottom (available from Becton, Dickinson and Company, Franklin Lakes, N.J.)” for “bottom”
# In carrying out the first step, on the day of the experiment, the 96 well microplate containing the HEK a-3 cells was removed from the incubator and 100 μl of Solution C were added to each well of the 96 well microplate. Upon completion of addition, the microplate was stored at ambient temperature for 3.5 to 4 hours. […]
# [2] = system: tobacco budworm GABA-gated chloride channel; assay: Fluorescence in HEK a-3 cells by the standard protocol of the FLIPR Membrane Potential Assay Kit; assay type: cell-based; details: 25 μl of 300 μM GABA solution; dye incubated at 37° C. for 0.5 to one hour; FIG. 1
# Description: This example illustrates the measurement of fluorescence in HEK a-3 cells in the manner described in the protocol for the FLIPR® Membrane Potential Assay Kit.
# The following solutions were prepared prior to or on the same day the experiment was to be carried out: • Solution A: To about one liter of deionized water was added 8.0 grams of sodium chloride, 0.395 gram of potassium chloride, 0.294 gram of calcium chloride, 0.203 gram of magnesium chloride, 4.5 grams of glucose, and 2.38 grams of [4-(2-hydroxyethyl)-1-piperazineethanesulfonic acid (“HEPES”) (all available from Aldrich Chemical Company, Milwaukee, Wis.). […]
# In carrying out the first step, on the day of the experiment, the 96 well microplate containing the HEK a-3 cells was removed from the incubator and 100 μl of Solution C was added to the two wells of the 96 well microplate. […] After this time, the microplate was placed onto the FLIPR^384® Fluorometric Imaging Plate Reader system in which the laser intensity was set at a suitable level to obtain a basal value of approximately 10,000 fluorescence units, fluorescent readings were obtained every one second for the first minute and then every six seconds thereafter, and fluorescence measurements were captured by a cooled CCD camera. […]
# [3] = 10 μM compound, [1 − (fluorescence of test compound/fluorescence of control)] × 100
# [4] = 0.003 μM compound, relative to DMSO control
# [5] = 0.01 μM compound, relative to DMSO control
# [6] = 0.03 μM compound, relative to DMSO control
# [7] = 0.1 μM compound, relative to DMSO control
# [8] = 0.3 μM compound, relative to DMSO control
# [9] = 1 μM compound, relative to DMSO control
# [10] = 3 μM compound, relative to DMSO control
Structure (SMILES),Fluorescence ([1]; 10 μM compound),"% Inhibition [1, 3]",Fluorescence ([1]; 0.003 μM compound),"% Inhibition [1, 4]",Fluorescence ([1]; 0.01 μM compound),"% Inhibition [1, 5]",Fluorescence ([1]; 0.03 μM compound),"% Inhibition [1, 6]",Fluorescence ([1]; 0.1 μM compound),"% Inhibition [1, 7]",Fluorescence ([1]; 0.3 μM compound),"% Inhibition [1, 8]",Fluorescence ([1]; 1 μM compound),"% Inhibition [1, 9]",Fluorescence ([1]; 3 μM compound),"% Inhibition [1, 10]","change in fluorescence after addition of GABA ([1]; 25 μl of 300 μM GABA solution, dye at ambient temperature 3.5 to 4 hours, FIG. 2)",change in fluorescence after addition of GABA [2]
"CN1CCc2cc3c(cc2[C@H]1[C@@H]1OC(=O)c2c1ccc1c2OCO1)OCO3 [Bicuculine, bicuculine]",11543,5%,–,–,–,–,–,–,–,–,–,–,–,–,–,–,–,–
"ClC1=C(Cl)[C@]2(Cl)[C@@H]3[C@@H]4C[C@@H]([C@H]5O[C@@H]45)[C@@H]3[C@@]1(Cl)C2(Cl)Cl [Dieldrin, dieldrin]",67,100%,13284,−1%,12339,5%,11492,12%,9924,34%,7279,44%,4184,68%,900,93%,–,–
"O=S1OCC2C(CO1)C1(Cl)C(Cl)=C(Cl)C2(Cl)C1(Cl)Cl (stereo not drawn) [Endosulfan, endosulfan]",993,93%,14343,−3%,15198,−9%,11074,20%,7098,48%,4426,68%,1903,86%,1615,88%,–,–
"N#Cc1nn(-c2c(Cl)cc(C(F)(F)F)cc2Cl)c(N)c1[S+]([O-])C(F)(F)F (stereo not drawn) [Fipronil, fipronil]",628,95%,11275,10%,8328,43%,6441,48%,4469,64%,2990,76%,1790,86%,1031,92%,–,–
"NCCCC(=O)O [GABA, Gamma amino-n-butyric acid]",–,–,–,–,–,–,–,–,–,–,–,–,–,–,–,–,an increase in fluorescence,no change in fluorescence was observed
CCCC(C)C1(CC)C(=O)NC(=O)NC1=O (stereo not drawn) [Pentabarbitol],11575,5%,–,–,–,–,–,–,–,–,–,–,–,–,–,–,–,–
